From patent US8217075B2, “2-amino-2-phenyl-alkanol derivatives, their preparation and pharmaceutical compositions containing them” (Oroxcell, priority 2008, dated 2012) come the findings set out here.

The structures appear in SMILES notation.

In assay [1] the test system is formalin-induced short- and long-phase pain. To be noted: rat, dose of 39.3 mg/kg by subcutaneous route.
The subject of assay [2] is abdominal pain by irritation and distension of the colon. The conditions noted are these: rats, from 13.1 mg/kg and at doses of 26.2 mg/kg by subcutaneous route.

In the case of `CC[C@@](COC(=O)c1cc(OC)c(OC)c(OC)c1)(c1ccccc1)N(C)C(=O)OCc1ccc(OC)cc1` [Example 4], the “short- and long-phase activity” value in assay [1] is “demonstrated short- and long-phase activity”. Also, in assay [2], the “activity in abdominal pain test” value is given as “demonstrated activity”.
